Results on 2 molecules are retold here after patent US20100107281A1, “PESTICIDAL COMBINATIONS” (priority 2006, published 2010).

The subject of this assay is Soybean Cyst Nematode (Heterodera Glycines). As to the kind of experiment: Soybean cyst nematode reproduction on seed-treated soybean plants in cone-tainers, eggs counted 30 days after inoculation. Type of assay: in vivo. The following applies: soybean seed treatment. From the text: The expected percentage of disease control to be expected, E, for a given combination of two active ingredients can be calculated as follows (see COLBY, S. R. “Calculating synergistic and antagonistic response of herbicide combinations”. Weeds 15, pages 20-22; 1967):
wherein: X=% disease control in the case of treatment with active ingredient (A) at a defined application rate, in comparison with untreated control (=0%). Y=% disease control in the case of treatment with active ingredient (B) at a defined application rate, in comparison with untreated control. E=expected percentage of disease control (% disease control in comparison with untreated control) after treatment with active ingredient (A) and active ingredient (B) at a defined application rate. If the observed percentage of disease control O is greater than the expected value E, there is a synergistic effect.
Soybeans were planted into “cone-tainers” (3.8 cm cell diameter; 14 cm cell depth; the Ray Leach “Cone-tainer” Single Cell System consists of individual cells that can be arranged within a tray and is available from Stuewe and Sons Incorporated) in 70% sand 30% clay loam soil mix (one soybean seed per cone-tainer). The cone-tainers contained a 10 cm by 10 cm piece of cheesecloth at the bottom to prevent the soil coming out of the bottom. The soil mix was autoclaved for 60 minutes prior to use. Extra cone-tainers were planted which allowed similar size soybean plants to be selected and placed into a randomized complete block design with 3 replications of each treatment. The cone-tainers were placed into a growth chamber set at 27° C. and 14 hour day light periods. The air temperature in the growth chamber was monitored in 15 minutes intervals using a watchdog data collector. […] The water source was supplemented with fertilizer to promote plant growth.
Soil was collected from a field with “HG type” 2.5.7 (The “HG type” test is a greenhouse test that provides information on how well a soybean cyst nematode “Heterodera glycines, HG” population can reproduce in a particular soil). The soil was added to water and poured over a 25 mesh sieve over a 60 mesh sieve to collect the cysts. The soil solution collected on the 60 mesh sieve was then placed onto a 120 mesh sieve over 500 mesh sieve. […]
The soybean plants were inoculated with 6,000 soybean cyst nematode eggs 7 days after the planting of the soybeans into the cone-tainers. […] The air temperature in the growth chamber was monitored in 15 minutes intervals using a watchdog data collector. […]
The plants were removed from the growth chamber 30 days after inoculation to assess the nematode reproduction factor. […] The total number of soybean cyst nematode eggs present in each sample was determined. […]

Take `CSC(=O)c1cccc2nnsc12` [(B-1), acibenzolar-S-methyl]: the “Observed Rf (nematode reproduction factor)” value is given as 4.1 (2.5 g acibenzolar-S-methyl/100 kg seed, 30 days after inoculation); 2.7 (5.0 g acibenzolar-S-methyl/100 kg seed, 30 days after inoculation); 3.9 (10.0 g acibenzolar-S-methyl/100 kg seed, 30 days after inoculation).

For the molecule abamectin [(A-a)], the “Observed Rf (nematode reproduction factor)” value (0.15 mg abamectin/seed, 30 days after inoculation with 6,000 eggs) is recorded as 2.5.
